Reference: patent US20250282895A1, “PHARMACEUTICAL COMPOSITIONS OF CHEMOTHERAPEUTIC AGENTS BASED ON BETA-S[…]-AMINO ACID DERIVATIVES” (priority 2021, published 2025)
Structures can show the parent of a compound that is named as a salt.

Assay: Comparative stability, Formulation 4 (based on Treanda, mannitol)
Type: physicochemical
Experimental: The stability of Compound (1c) either as the HCl salt or as the free base was compared to the stability of melphalan HCl and/or bendamustine HCl in various pharmaceutical formulations and at different concentrations and at temperatures of 0° C. or 25° C.
The stability of the compounds in the pharmaceutical formulations was determined at concentrations within the range from 0.4 mg/mL to 0.5 mg/mL, from 0.9 mg/mL to 1.1 mg/mL, and from 1.8 mg/mL to 2.1 mg/mL.
The amount of the active pharmaceutical ingredient (API) (Compound (1c), melphalan or bendamustine) in the pharmaceutical formulations at different times during storage was determined using HPLC/UV as described in detail for Example 4 and Example 5.
Treanda® is an injectable formulation of bendamustine hydrochloride, 1H-benzimidazole-2-butanoic acid, 5-[bis(2-chloroethyl)amino]-1-methyl-, 4-(5-(bis(2-chloroethyl)amino)-1-methyl-1H-benzo[d]imidazol-2-yl) butanoic acid monohydrochloride approved by the FDA. Treanda® for injection is provided in a vial containing either 25 or 100 mg of bendamustine HCl as a white to off-white lyophilized powder. Each vial contains either 25 mg or 100 mg of bendamustine hydrochloride and 42.5 mg or 170 mg of mannitol, USP, which is reconstituted in either 0.9% sodium chloride injection, USP, or 2.5% dextrose/0.45% sodium chloride solution injection, USP to a final concentration of 0.2 mg/mL-0.6 mg/mL and adjusted to a pH from 2.5 to 3.5.
A series of 12 mL glass vials each containing 12.5 mg (0.0317 mmol) of bendamustine mono-hydrochloride salt (C16H21C12N3O2·HCl, 394.72 g/mol; MedKoo, 200470) (corresponding to 11.3 mg of bendamustine as the free base) were prepared through weighing out the commercial compound into the vials. To each of the vials either containing bendamustine mono-hydrochloride salt was added 21.3 mg (0.117 mmol) of D-mannitol (C6H14O6, MW 182.17 g/mol; SigmaAldrich, M1902). The mixtures were dissolved in 2.0 mL of double distilled water (dd-H2O) (Arrowhead), the clear colorless solutions were frozen at −78° C. (dry ice/acetone bath), and the solvents were lyophilized off at about 100 mTorr within about 16 h to afford colorless solids.
A stock solution was prepared by dissolving 85.0 mg (0.255 mmol) of Compound (1c) (free base) and 170.4 mg of D-mannitol (0.935 mmol) (C6H14O6, MW 182.17 g/mol; SigmaAldrich, M1902), and 0.503 mL of 0.5072 M aq. HCl (0.255 mmol, 1.0 eq.) (Fluka, 318957) in about 16.0 mL of a mixture of acetonitrile/water (1:1, v/v) with vortexing in clean graduated glass cylinder (25 mL) to afford a stock solution of Compound (1c) as a mono-HCl salt of a concentration of 5.313 mg/mL and a D-mannitol concentration of 10.65 mg/mL. This solution was filtered through a 0.22 μm PTFE syringe filter into a clean 25 mL Erlenmeyer flask. Aliquots of 2.0 mL (2× 1.0 mL; 2× 5.313 mg) of this stock solution were rapidly pipetted into clean 12 mL scintillation vials. The aliquots were frozen at −78° C. (dry ice/acetone bath) and lyophilized at about 100 mTorr for about 16 hours to provide test vials each containing 11.8 mg (0.0319 mmol) of Compound (1c) mono-hydrochloride salt (mono-HCl salt) (corresponding to 10.6 mg of Compound (1c) as a free base) and 21.3 mg (0.117 mmol) of D-mannitol as a colorless powdery solid.
The materials in the vials were dissolved 2.5 mL of double-distilled water (dd-H2O) (Arrowhead) to provide clear colorless, non-viscous stock solutions of a concentration of 4.24 mg/mL of Compound (1c) as the monohydrochloride salt or 4.54 mg/mL of bendamustine as the mono-hydrochloride salt, respectively.
1.0 mL of the stock solution containing 4.24 mg/mL of Compound (1c) as the monohydrochloride salt was diluted with 9.0 mL of 0.9% saline to afford 10.0 mL of a test solution of a concentration of 0.424 mg/mL of Compound (1c) as the monohydrochloride salt and with a pH of about 4. […]

Structure (SMILES): Cc1ccc(N(CCCl)CCCl)cc1C[C@H](N)CC(=O)O [Compound (1c)•HCl, (S)-3-amino-4-(5-(bis(2-chloroethyl)amino)-2-methylphenyl) butanoic acid mono hydrochloride salt]
- % API (Formulation 4, 0° C., 0.5 hours, 0.4-0.5 mg/mL, pH 4-5 (bendamustine), pH 4 (Compound (1c)•HCl)): 92%
- % API (Formulation 4, 0° C., 0.5 hours, 0.9-1.1 mg/mL, pH 4): 92%
- % API (Formulation 4, 0° C., 0.5 hours, 1.8-2.1 mg/mL, pH 4): 93%
- % API (Formulation 4, 0° C., 2.0 hours, 0.4-0.5 mg/mL, pH 4-5 (bendamustine), pH 4 (Compound (1c)•HCl)): 78%
- % API (Formulation 4, 0° C., 2.0 hours, 0.9-1.1 mg/mL, pH 4): 73%
- % API (Formulation 4, 0° C., 2.0 hours, 1.8-2.1 mg/mL, pH 4): 80%
- % API (Formulation 4, 25° C., 0.5 hours, 0.4-0.5 mg/mL, pH 4-5 (bendamustine), pH 4 (Compound (1c)•HCl)): 95%
- % API (Formulation 4, 25° C., 0.5 hours, 0.9-1.1 mg/mL, pH 4-5 (bendamustine), pH 4 (Compound (1c)•HCl)): 95%
- % API (Formulation 4, 25° C., 0.5 hours, 1.8-2.1 mg/mL, pH 4-5 (bendamustine), pH 4 (Compound (1c)•HCl)): 92%
- % API (Formulation 4, 25° C., 2.0 hours, 0.4-0.5 mg/mL, pH 4-5 (bendamustine), pH 4 (Compound (1c)•HCl)): 81%
- % API (Formulation 4, 25° C., 2.0 hours, 0.9-1.1 mg/mL, pH 4-5 (bendamustine), pH 4 (Compound (1c)•HCl)): 81%
- % API (Formulation 4, 25° C., 2.0 hours, 1.8-2.1 mg/mL, pH 4-5 (bendamustine), pH 4 (Compound (1c)•HCl)): 75%
